Source: PubChem BioAssay (NCI)
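Following 48 hours of exposure in 96-well plates, responses at five concentrations were used to interpolate endpoints linearly. The concentration for full growth arrest is given as TGI.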

Legend:
Assay in all cases: NCI anticancer screen, dose series, 48 h
U251 CNS = tested on: U251 CNS
NCI-H522 lung = tested on: NCI-H522 lung
HCT-15 colon = tested on: HCT-15 colon
SW-620 colon = tested on: SW-620 colon
CCRF-CEM leukemia = tested on: CCRF-CEM leukemia
SF-539 CNS = tested on: SF-539 CNS
HCT-116 colon = tested on: HCT-116 colon
SK-OV-3 ovarian = tested on: SK-OV-3 ovarian
RXF 393 renal = tested on: RXF 393 renal
SNB-75 CNS = tested on: SNB-75 CNS
CAKI-1 renal = tested on: CAKI-1 renal
COLO 205 colon = tested on: COLO 205 colon

COc1ccc([C@H]2[C@@H]3CCc4ccccc4C3=NN2C(N)=S)cc1OC
TGI (U251 CNS): > 100 µM | TGI (NCI-H522 lung): 59.7 µM | TGI (HCT-15 colon): > 100 µM | TGI (SW-620 colon): > 100 µM | TGI (CCRF-CEM leukemia): > 100 µM | TGI (SF-539 CNS): > 100 µM | TGI (HCT-116 colon): > 100 µM | TGI (SK-OV-3 ovarian): > 100 µM | TGI (RXF 393 renal): > 100 µM

CC(=O)Nc1ccc(S(=O)(=O)N/N=C(\C)CN2C(=O)c3ccccc3C2=O)cc1
TGI (U251 CNS): > 100 µM | TGI (NCI-H522 lung): > 100 µM | TGI (HCT-15 colon): > 100 µM | TGI (SW-620 colon): > 100 µM | TGI (CCRF-CEM leukemia): > 100 µM | TGI (SNB-75 CNS): > 100 µM | TGI (SF-539 CNS): > 100 µM | TGI (CAKI-1 renal): > 100 µM | TGI (HCT-116 colon): > 100 µM | TGI (COLO 205 colon): > 100 µM | TGI (SK-OV-3 ovarian): > 100 µM

CC(=O)NC(CCCCN(Cc1ccccc1)C(=O)N(C)N=O)C(=O)NCc1ccccc1 (stereo not drawn)
TGI (U251 CNS): > 100 µM | TGI (NCI-H522 lung): > 100 µM | TGI (HCT-15 colon): > 100 µM | TGI (SW-620 colon): > 100 µM | TGI (CCRF-CEM leukemia): > 100 µM | TGI (SNB-75 CNS): 86.9 µM | TGI (SF-539 CNS): > 100 µM | TGI (CAKI-1 renal): > 100 µM | TGI (HCT-116 colon): > 100 µM | TGI (COLO 205 colon): > 100 µM | TGI (SK-OV-3 ovarian): > 100 µM | TGI (RXF 393 renal): > 100 µM

COc1ccc(C2S/C(=C\c3ccc([N+](=O)[O-])cc3)C(=O)N2NC(=O)Cc2ccccc2)cc1 (stereo not drawn)
TGI (U251 CNS): > 100 µM | TGI (NCI-H522 lung): > 100 µM | TGI (HCT-15 colon): > 100 µM | TGI (SW-620 colon): > 100 µM | TGI (CCRF-CEM leukemia): > 100 µM | TGI (SNB-75 CNS): > 100 µM | TGI (SF-539 CNS): > 100 µM | TGI (CAKI-1 renal): > 100 µM | TGI (HCT-116 colon): > 100 µM | TGI (COLO 205 colon): > 100 µM | TGI (SK-OV-3 ovarian): > 100 µM | TGI (RXF 393 renal): > 100 µM

COc1ccc(/C=N/NC(=O)CSc2nc(-c3ccccc3)c(-c3ccccc3)[nH]2)cc1OC
TGI (U251 CNS): 57.8 µM | TGI (NCI-H522 lung): 39.9 µM | TGI (HCT-15 colon): 83.9 µM | TGI (SW-620 colon): > 100 µM | TGI (CCRF-CEM leukemia): > 100 µM | TGI (SNB-75 CNS): 77 µM | TGI (SF-539 CNS): 45.6 µM | TGI (CAKI-1 renal): 72.9 µM | TGI (HCT-116 colon): 87.2 µM | TGI (COLO 205 colon): 49.2 µM | TGI (SK-OV-3 ovarian): 63.3 µM | TGI (RXF 393 renal): 52.7 µM

CC1(C)OC2C(O1)[C@H]1OC(C(Cl)(Cl)Cl)=N[C@H]1C(I)[C@H]2N1C(=O)c2ccccc2C1=O (stereo partly drawn)
TGI (U251 CNS): > 100 µM | TGI (NCI-H522 lung): 74.5 µM | TGI (HCT-15 colon): > 100 µM | TGI (SW-620 colon): > 100 µM | TGI (CCRF-CEM leukemia): > 100 µM | TGI (SNB-75 CNS): > 100 µM | TGI (SF-539 CNS): > 100 µM | TGI (HCT-116 colon): > 100 µM | TGI (COLO 205 colon): > 100 µM | TGI (RXF 393 renal): 88.6 µM

O=C(c1nc2ccc(Cl)cc2[nH]c1=O)C(O)c1ccco1 (stereo not drawn)
TGI (NCI-H522 lung): 32.2 µM | TGI (HCT-15 colon): 37.1 µM | TGI (SW-620 colon): > 100 µM | TGI (CCRF-CEM leukemia): > 100 µM | TGI (SNB-75 CNS): > 100 µM | TGI (SF-539 CNS): > 100 µM | TGI (CAKI-1 renal): > 100 µM | TGI (HCT-116 colon): > 100 µM | TGI (COLO 205 colon): > 100 µM | TGI (SK-OV-3 ovarian): > 100 µM | TGI (RXF 393 renal): > 100 µM

CC(C)C1COC(C(C)(C)C2=N[C@@H](C(C)C)CO2)=N1 (stereo partly drawn)
TGI (U251 CNS): > 100 µM | TGI (NCI-H522 lung): > 100 µM | TGI (HCT-15 colon): > 100 µM | TGI (SW-620 colon): > 100 µM | TGI (CCRF-CEM leukemia): > 100 µM | TGI (SNB-75 CNS): > 100 µM | TGI (SF-539 CNS): > 100 µM | TGI (HCT-116 colon): > 100 µM | TGI (COLO 205 colon): > 100 µM | TGI (SK-OV-3 ovarian): > 100 µM | TGI (RXF 393 renal): > 100 µM

Cc1ccc([N+](=O)[O-])cc1NC(=O)/C(CC(=O)c1sc(C(N)=S)nc1C)=N\N
TGI (U251 CNS): > 100 µM | TGI (NCI-H522 lung): 76.4 µM | TGI (HCT-15 colon): > 100 µM | TGI (SW-620 colon): > 100 µM | TGI (CCRF-CEM leukemia): 79.2 µM | TGI (SNB-75 CNS): > 100 µM | TGI (SF-539 CNS): > 100 µM | TGI (CAKI-1 renal): > 100 µM | TGI (HCT-116 colon): > 100 µM | TGI (SK-OV-3 ovarian): > 100 µM | TGI (RXF 393 renal): > 100 µM

CC1=C(c2ccccc2)CON(c2ccccc2)C1
TGI (U251 CNS): 69 µM | TGI (NCI-H522 lung): 53.8 µM | TGI (HCT-15 colon): > 100 µM | TGI (SW-620 colon): > 100 µM | TGI (CCRF-CEM leukemia): > 100 µM | TGI (SF-539 CNS): > 100 µM | TGI (CAKI-1 renal): > 100 µM | TGI (HCT-116 colon): 79.9 µM | TGI (COLO 205 colon): > 100 µM | TGI (SK-OV-3 ovarian): > 100 µM | TGI (RXF 393 renal): 86.2 µM

COc1cc(CO)cc2c1[nH]c1ccccc12
TGI (U251 CNS): > 25 µM | TGI (NCI-H522 lung): > 25 µM | TGI (HCT-15 colon): > 25 µM | TGI (SW-620 colon): > 25 µM | TGI (CCRF-CEM leukemia): > 25 µM | TGI (SF-539 CNS): > 25 µM | TGI (HCT-116 colon): > 25 µM | TGI (COLO 205 colon): > 25 µM | TGI (SK-OV-3 ovarian): > 25 µM | TGI (RXF 393 renal): > 25 µM

O=C(Cc1ccccc1)N/N=C(/c1nc2ccc([N+](=O)[O-])cc2[nH]c1=O)C(O)c1ccco1 (stereo not drawn)
TGI (U251 CNS): > 100 µM | TGI (NCI-H522 lung): > 100 µM | TGI (HCT-15 colon): > 100 µM | TGI (SW-620 colon): > 100 µM | TGI (CCRF-CEM leukemia): > 100 µM | TGI (SNB-75 CNS): > 100 µM | TGI (SF-539 CNS): > 100 µM | TGI (CAKI-1 renal): > 100 µM | TGI (HCT-116 colon): > 100 µM | TGI (COLO 205 colon): > 100 µM | TGI (SK-OV-3 ovarian): > 100 µM

COC(=O)[C@H]1C2CC[C@@H]3C45C[C@@H](c6ccoc6)O[C@@H]4O[C@@H](O2)C31CCC5C (stereo partly drawn)
TGI (U251 CNS): > 100 µM | TGI (NCI-H522 lung): > 100 µM | TGI (HCT-15 colon): > 100 µM | TGI (SW-620 colon): > 100 µM | TGI (CCRF-CEM leukemia): > 100 µM | TGI (SF-539 CNS): > 100 µM | TGI (CAKI-1 renal): > 100 µM | TGI (HCT-116 colon): > 100 µM | TGI (COLO 205 colon): > 100 µM | TGI (SK-OV-3 ovarian): > 100 µM

N#CC(C(=S)Nc1ccccc1)=C1Nc2ccccc2N1
TGI (U251 CNS): > 10 µM | TGI (NCI-H522 lung): > 10 µM | TGI (HCT-15 colon): > 10 µM | TGI (SW-620 colon): > 10 µM | TGI (CCRF-CEM leukemia): > 10 µM | TGI (SNB-75 CNS): > 10 µM | TGI (SF-539 CNS): > 10 µM | TGI (CAKI-1 renal): > 10 µM | TGI (HCT-116 colon): > 10 µM | TGI (COLO 205 colon): > 10 µM | TGI (SK-OV-3 ovarian): > 10 µM

O=C(c1nc2ccc(Cl)cc2[nH]c1=O)C(O)c1cccc([N+](=O)[O-])c1 (stereo not drawn)
TGI (U251 CNS): > 100 µM | TGI (NCI-H522 lung): > 100 µM | TGI (HCT-15 colon): > 100 µM | TGI (CCRF-CEM leukemia): > 100 µM | TGI (SNB-75 CNS): > 100 µM | TGI (SF-539 CNS): > 100 µM | TGI (CAKI-1 renal): > 100 µM | TGI (HCT-116 colon): > 100 µM | TGI (COLO 205 colon): > 100 µM | TGI (SK-OV-3 ovarian): > 100 µM | TGI (RXF 393 renal): > 100 µM

CCOC(=O)/C(=C/c1ccccc1)N(CC)CC
TGI (U251 CNS): > 100 µM | TGI (NCI-H522 lung): > 100 µM | TGI (HCT-15 colon): > 100 µM | TGI (SW-620 colon): > 100 µM | TGI (CCRF-CEM leukemia): > 100 µM | TGI (SF-539 CNS): > 100 µM | TGI (CAKI-1 renal): > 100 µM | TGI (HCT-116 colon): > 100 µM | TGI (COLO 205 colon): > 100 µM | TGI (SK-OV-3 ovarian): > 100 µM
